{
  "source": "patent US20160113932A1",
  "about": "“TREATMENT OF CANCERS USING PI3 KINASE ISOFORM MODULATORS” (INFINITY PHARMACEUTICALS, INC., priority 2013, published 2016)",
  "key": {"[1]": {"assay": "Absolute bioavailability / pharmacokinetics in Sprague-Dawley rats", "format": "in vivo", "settings": "Rat, PO, 10 mg/kg, suspension"}, "[2]": {"tested_on": "serum cytokines/chemokines and matrix metalloproteinases", "assay": "Serum cytokines/chemokines in patients, Milliplex 96-well immuno-assay", "format": "in vivo, human", "settings": "CLL patients pooled, 8-75 mg BID, C1D8 and/or C2D1", "description": "Serum concentrations of a panel of human cytokines/chemokines were determined by Milliplex 96-well immuno-assay as described below.\nthe blood was allowed to clot for at least 30 minutes before centrifugation for 10 minutes at 1000×g. Serum was removed and either assayed immediately or aliquoted and stored at ≦−20° C. When using frozen samples, it is recommended to thaw the samples completely, mix well by vortexing and centrifuge prior to use in the assay to remove particulates.\n1.0 mL deionized water was added to the bottle containing lyophilized Serum Matrix (catalog number MX HSM from MILLIPLEX® Map), and was allowed to be mixed will for at least 10 minutes for complete reconstitution.\n200 μL of wash buffer was added into each well of the plate. The plate was sealed and mixed on a plate shaker for 10 minutes at room temperature (20-25° C.). The wash buffer was decanted and the residual amount was removed from all wells by inverting the plate and tapping it smartly onto absorbent towels several times. 25 μL of each standard or control was added into the appropriate wells. […]\nThe plate was run on Luminex 200™, HTS, FLEXMAP 3D™ or MAGPIX® with xPONENT software. The Median Fluorescent Intensity (MFI) data was saved and analyzed using a 5-parameter logistic or spline curve-fitting method for calculating cytokine/chemokines concentrations in samples. […]"}},
  "data": [
    {"smiles": "C[C@H](Nc1ncnc2[nH]cnc12)c1cc2cccc(Cl)c2c(=O)n1-c1ccccc1", "note": "[Compound 292]", "values": [
      {"measurement": "Foral", "setting": "[1]", "result": 57, "unit": "%"},
      {"measurement": "analytes decreased after treatment compared to baseline", "setting": "[2]", "result": "10 of 72 analytes"}
    ]}
  ]
}
